Data reported in patent US20130204033A1, “ANTIPROLIFERATIVE COMPOUNDS, CONJUGATES THEREOF, METHODS THEREFOR, AND USES THEREOF” (Medarex, Inc., priority 2009, published 2013).
Where two headings read alike, the source gives them in different places.

How the values were obtained:
Format in all cases: cell-based, human
[1] = system: ZR-75; experiment: 3H thymidine proliferation assay, ZR-75
Procedure, shortened: (§1)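 Seeding: 1.0×10^4 cells/well, 3 h. Dosing: 1:3 serial dilutions, 72 h. Label: ^3H-thymidine 1.0 μCi/well for last 24 h, scintillation read; EC50 = 50% proliferation reduction.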

[2] = system: DMS53; experiment: ATP luminescence proliferation assay, DMS53
Protocol: (§2) This example generally describes the procedures used to assay the antiproliferative activity of compounds of this invention or their conjugates. Human tumor cell lines were obtained from the American Type Culture Collection (ATCC), P.O. Box 1549, Manassas, Va. 20108, USA, and cultured according to instruction from the ATCC. Cells were seeded at 1.0×10^3 or 1.0×10^4 cells/well in 96-well plates for 3 h for ATP assays or ^3H thymidine assays, respectively. 1:3 serial dilutions of free (unconjugated) compounds or their conjugates were added to the wells. Plates were allowed to incubate for 24 to 72 h. The ^3H thymidine plates were pulsed with 1.0 μCi of ^3H-thymidine per well for the last 24 hours of the total incubation period, harvested, and read on a Top Count Scintillation Counter (Packard Instruments, Meriden, Conn.). ATP levels in the ATP plates were measured using the […]-GLO® Luminescent Cell Viability kit following the manufacturer's manual and read on a GLOMAX® 20/20 luminometer (both from Promega, Madison, Wis., USA). The EC50 values—the concentration at which an agent inhibits or reduces cell proliferation by 50% —were determined using PRISM™ software, version 4.0 (GraphPad Software, La Jolla, Calif., USA).
(§3) Using the ^3H thymidine or the ATP luminescence assay, or both, the activities of compounds of this invention were assayed against the following cancer cell lines: HCT-15 (colorectal cancer, multi-drug resistant (MDR)); Hep3B (liver cancer); LNCaP (prostate cancer, androgen receptor positive (AR^+)); MDA-MB-231 (breast cancer, estrogen receptor, progesterone receptor, and Her2 negative (triple negative)); A2058 (melanoma); U-87 MG (glioblastoma); NCI-H460 (NSCLC); A549 (NSCLC); HPAC (pancreatic cancer, primary); PC3 (prostate cancer, AR); BT474 (breast cancer, Her2 highly positive (Her2hi)); SKOV3 (ovarian cancer, Her2hi); 786-O (renal cancer); UO-31 (renal cancer, MDR); NCI-H740 (SCLC); DMS53 (SCLC); SK-BR3 (breast cancer, Her2hi); ZR-75 (breast cancer, estrogen receptor positive); OVCAR3 (ovarian cancer); HL-60 (APL); OVCAR8/Adr (ovarian cancer, MDR); CEM-Cl (ALL); Nomo-1 (AML); RPMI-8226 (MM)); Raji (lymphoma); SW-480 (colorectal cancer, metastatic); SW-620 (colorectal cancer); and H226 (lung cancer). (Not all compounds were assayed against all cell lines.)
(§4) Table 3 provides the data for the ATP luminescence proliferation assays, with an incubation period of 48, 72, or 96 h, as noted.

[3] = system: U-87 MG; experiment: 3H thymidine proliferation assay, U-87 MG
Procedure, shortened: as §1

[4] = system: HL-60; experiment: ATP luminescence proliferation assay, HL-60
Procedure, shortened: (§5)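 Read-out: luminescent ATP cell viability after 48, 72 or 96 h incubation, as noted, with 1:3 serial dilutions of unconjugated compounds or their conjugates. Plating was 1.0×10^3 cells/well, 3 h before dosing. EC50 = concentration giving 50% inhibition of proliferation.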

[5] = system: Hep3B; experiment: ATP luminescence proliferation assay, Hep3B
Protocol: as §2, §3, §4

[6] = system: SKOV3; experiment: ATP luminescence proliferation assay, SKOV3
Protocol: as §2, §3, §4

[7] = system: Nomo-1; experiment: 3H thymidine proliferation assay, Nomo-1
Procedure, shortened: as §1

[8] = system: CEM-C1; experiment: 3H thymidine proliferation assay, CEM-C1
Procedure, shortened: as §1

[9] = system: LNCaP; experiment: 3H thymidine proliferation assay, LNCaP
Procedure, shortened: as §1

[10] = system: RPMI-8226; experiment: 3H thymidine proliferation assay, RPMI-8226
Procedure, shortened: as §1

[11] = system: UO-31; experiment: ATP luminescence proliferation assay, UO-31
Protocol: as §2, §3, §4

[12] = system: 786-O; experiment: ATP luminescence proliferation assay, 786-O
Procedure, shortened: as §5

[13] = system: SW-480; experiment: ATP luminescence proliferation assay, SW-480
Protocol: as §2, §3, §4

[14] = system: SK-BR3; experiment: ATP luminescence proliferation assay, SK-BR3
Protocol: as §2, §3, §4

[15] = system: HCT-15; experiment: 3H thymidine proliferation assay, HCT-15
Procedure, shortened: as §1

[16] = system: Nomo-1; experiment: ATP luminescence proliferation assay, Nomo-1
Protocol: as §2, §3, §4

[17] = system: HPAC; experiment: ATP luminescence proliferation assay, HPAC
Protocol: as §2, §3, §4

[18] = system: MDA-MB-231; experiment: 3H thymidine proliferation assay, MDA-MB-231
Procedure, shortened: as §1

[19] = Homo sapiens, ZR75, read-out: EC50, ZR-75, 3H thymidine method, 72 h incubation
[20] = Homo sapiens, U-87 MG, read-out: EC50, U-87 MG, 3H thymidine method, 72 h incubation
[21] = Homo sapiens, 48 h, read-out: EC50 Hep3B (48 h), ATP luminescence, Hep3B, 48 h incubation
[22] = Homo sapiens, SK-OV-3, 72 h, read-out: EC50 SKOV3 (72 h), ATP luminescence, SKOV3, 72 h incubation
[23] = Homo sapiens, NOMO-1, read-out: EC50, Nomo-1, 3H thymidine method, 72 h incubation
[24] = Homo sapiens, CEM/C1, read-out: EC50, CEM-C1, 3H thymidine method, 72 h incubation
[25] = Homo sapiens, LNCaP, read-out: EC50, LNCaP, 3H thymidine method, 72 h incubation
[26] = Homo sapiens, RPMI-8226, read-out: EC50, RPMI-8226, 3H thymidine method, 72 h incubation
[27] = Homo sapiens, UO-31, 48 h, read-out: EC50 UO-31 (48 h), ATP luminescence, UO-31, 48 h incubation
[28] = Homo sapiens, 786-0, 72 h, read-out: EC50 786-O (72 h), ATP luminescence, 786-O, 72 h incubation
[29] = Homo sapiens, SW480, 96 h, read-out: EC50 SW480 (96 h), ATP luminescence, SW480, 96 h incubation
[30] = Homo sapiens, SK-BR-3, 48 h, read-out: EC50 SK-BR3 (48 h), ATP luminescence, SK-BR3, 48 h incubation
[31] = Homo sapiens, HCT-15, read-out: EC50, HCT-15, 3H thymidine method, 72 h incubation
[32] = Homo sapiens, NOMO-1, 48 h, read-out: EC50 Nomo-1 (48 h), ATP luminescence, Nomo-1, 48 h incubation
[33] = Homo sapiens, 72 h, read-out: EC50 HPAC (72 h), ATP luminescence, HPAC, 72 h incubation
[34] = Homo sapiens, MDA-MB-231, read-out: EC50, MDA-MB-231, 3H thymidine method, 72 h incubation

SMILES	EC50 [1, 19] [nM]	EC50 [3, 20] [nM]	EC50 [5, 21] [nM]	EC50 [6, 22] [nM]	EC50 [7, 23] [nM]	EC50 [8, 24] [nM]	EC50 [9, 25] [nM]	EC50 [10, 26] [nM]	EC50 [11, 27] [nM]	EC50 [12, 28] [nM]	EC50 [13, 29] [nM]	EC50 [14, 30] [nM]	EC50 [15, 31] [nM]	EC50 [16, 32] [nM]	EC50 [17, 33] [nM]	EC50 [18, 34] [nM]	other results
CC[C@H](C)[C@H](NC(=O)[C@H]1CCCCN1C)C(=O)N(C)[C@H](C[C@@H](OC)c1nc(C(=O)N[C@H](CC(=O)OC)Cc2ccccc2)cs1)C(C)C [Compound 25]	> 3000	271	246	109	116	225	930	396	759	306	261	> 3000	280	83	97	236	EC50 ([2]; Homo sapiens, DMS-53, 48 h, read-out: EC50 DMS53 (48 h), ATP luminescence, DMS53, 48 h incubation): 366 nM; EC50 ([4]; Homo sapiens, HL-60, 48 h, read-out: EC50 HL-60 (48 h), ATP luminescence, HL-60, 48 h incubation): 224 nM
CC[C@H](C)[C@H](NC(=O)[C@H]1CCCCN1C)C(=O)N(C)[C@H](C[C@@H](OC)c1nc(C(=O)N[C@H](CCC(=O)OC)Cc2ccccc2)cs1)C(C)C [Compound 26]	> 300	5.2	100	38	0.36	22	> 3000	7.7	240	126	67	253	31	3.9	279	15	EC50 ([2]; Homo sapiens, DMS-53, 72 h, read-out: EC50 DMS53 (72 h), ATP luminescence, DMS53, 72 h incubation): 193 nM; EC50 ([4]; Homo sapiens, HL-60, 72 h, read-out: EC50 HL-60 (72 h), ATP luminescence, HL-60, 72 h incubation): 27 nM
CC[C@H](C)[C@H](NC(=O)[C@H]1CCCCN1C)C(=O)N(COC(=O)CC(C)C)[C@H](C[C@@H](O)c1nc(C(=O)N[C@@H](Cc2ccccc2)C(=O)OC)cs1)C(C)C [Compound 28]	–	–	–	–	–	–	–	–	–	–	–	–	–	–	–	–	EC50 ([1]; 3H thymidine method, 72 h incubation, read-out: EC50, ZR-75): 4.3 nM; EC50 ([2]; ATP luminescence, DMS53, 72 h incubation, read-out: EC50 DMS53 (72 h)): 58 nM; EC50 ([3]; 3H thymidine method, 72 h incubation, read-out: EC50, U-87 MG): > 100 nM; EC50 ([4]; ATP luminescence, HL-60, 72 h incubation, read-out: EC50 HL-60 (72 h)): 2.9 nM; EC50 ([5]; ATP luminescence, 48 h incubation, read-out: EC50 Hep3B (48 h)): 17 nM; EC50 ([6]; ATP luminescence, SKOV3, 72 h incubation, read-out: EC50 SKOV3 (72 h)): 11 nM; EC50 ([7]; 3H thymidine method, 72 h incubation, read-out: EC50, Nomo-1): 0.2 nM; EC50 ([8]; 3H thymidine method, 72 h incubation, read-out: EC50, CEM-C1): 10 nM; EC50 ([9]; 3H thymidine method, 72 h incubation, read-out: EC50, LNCaP): 64 nM; EC50 ([10]; 3H thymidine method, 72 h incubation, read-out: EC50, RPMI-8226): 8.7 nM; EC50 ([11]; ATP luminescence, UO-31, 48 h incubation, read-out: EC50 UO-31 (48 h)): 5.8 nM; EC50 ([12]; ATP luminescence, 786-O, 72 h incubation, read-out: EC50 786-O (72 h)): 29 nM; EC50 ([13]; ATP luminescence, SW480, 96 h incubation, read-out: EC50 SW480 (96 h)): 36 nM; EC50 ([14]; ATP luminescence, SK-BR3, 48 h incubation, read-out: EC50 SK-BR3 (48 h)): 7.8 nM; EC50 ([15]; 3H thymidine method, 72 h incubation, read-out: EC50, HCT-15): 223 nM; EC50 ([16]; ATP luminescence, Nomo-1, 72 h incubation, read-out: EC50 Nomo-1 (72 h)): 0.82 nM; EC50 ([17]; ATP luminescence, 72 h incubation, read-out: EC50 HPAC (72 h)): 5.9 nM; EC50 ([18]; 3H thymidine method, 72 h incubation, read-out: EC50, MDA-MB-231): > 100 nM
